From patent US4160829A, “Antibacterial 1,2,4-oxadiazolylacetamido cephalosporins” (Gist-Brocades N.V., priority 1972, dated 1979)
Values after ≈ are worked out from the molar mass of the structure shown. Read-outs that look alike come from different tables or passages of the source.

Key:
[1] = test system: Pseud.aerug. 2396; experiment: agar serial dilution test; type: cell-based; conditions: agar serial dilution, 24 hours, 37° C.; for MIC: read-out: minimal inhibitory concentration (MIC)
[2] = test system: Shig.equir. T 3; experiment: agar serial dilution test; type: cell-based; conditions: 37° C.; for MIC: 24 h, read-out: minimal inhibitory concentration (MIC)
[3] = test system: Kleb.pneum. A 809; experiment: agar serial dilution test; type: cell-based, Klebsiella pneumoniae; conditions: agar serial dilution, 24 hours, 37° C.; for MIC: Klebsiella pneumoniae, read-out: minimal inhibitory concentration (MIC)
[4] = test system: Prot.morg. 2241; experiment: agar serial dilution test; type: cell-based; conditions: agar serial dilution, 24 hours, 37° C.; for MIC: 24 h, read-out: minimal inhibitory concentration (MIC)
[5] = test system: Prot.mirab. L 93; experiment: agar serial dilution test; type: cell-based, Proteus mirabilis; conditions: for MIC: Proteus mirabilis
[6] = test system: Past.multo. A 723; experiment: agar serial dilution test; type: cell-based, Pasteurella multocida; conditions: agar serial dilution, 24 hours, 37° C.; for MIC: Pasteurella multocida, read-out: minimal inhibitory concentration (MIC)
[7] = test system: Staph.aureus A 2000; experiment: agar serial dilution test; type: cell-based, Staphylococcus aureus; conditions: agar serial dilution, 24 hours, 37° C.; for MIC: Staphylococcus aureus, A2000, 24 h, read-out: minimal inhibitory concentration (MIC)
[8] = test system: Pseud.aerug. Wyeth A 1058; experiment: agar serial dilution test; type: cell-based; conditions: agar serial dilution, 24 hours, 37° C.; for MIC: read-out: minimal inhibitory concentration (MIC)
[9] = test system: Staph.aureus A 2000; experiment: micro serial dilution test; type: cell-based, Staphylococcus aureus; conditions: micro serial dilution (in brackets), about 18 hours, 30° C. or 37° C.; for MIC: Staphylococcus aureus, A2000, 18 h, read-out: minimal inhibitory concentration (MIC)
[10] = test system: Staph.aureus A 355; experiment: micro serial dilution test; type: cell-based, Staphylococcus aureus; conditions: micro serial dilution (in brackets), about 18 hours, 30° C. or 37° C., penicillinase-producing strain; for MIC: Staphylococcus aureus, A355, read-out: minimal inhibitory concentration (MIC)
Description: Two drops of a stock solution of the test compound (antibiotic) in a known concentration were brought into the first hole of a test plate with 9 numbered holes with a sterile Pasteur pipette. After rinsing this pipette three times with a physiological NaCl-solution, two drops of a stock solution of the test organism in a culture medium were brought in all the holes except for hole 8. In the first hole, the solution of the tested compound had been half diluted, then by stirring the liquid in the first hole and adding two drops of this mixture to the second hole and so on until hole 8, dilutions of the test compound solution were obtained in geometrical progression. The hole 9 contained no antibiotic and served for checking the growth of the testogranism in a blank medium. The test plate was incubated at 30° C. or 37° C. for about 18 hours.
^1 Penicillinase-producing strain

[11] = test system: Haem.infl. A 1030; experiment: micro serial dilution test; type: cell-based; conditions: micro serial dilution (in brackets), about 18 hours, 30° C. or 37° C.; for MIC: 18 h, read-out: minimal inhibitory concentration (MIC)
[12] = test system: Prot.mirab. A 1200; experiment: agar serial dilution test; type: cell-based, Proteus mirabilis; conditions: agar serial dilution, 24 hours, 37° C.; for MIC: Proteus mirabilis, 24 h, read-out: minimal inhibitory concentration (MIC)
[13] = test system: Salm.typh. R 127; experiment: agar serial dilution test; type: cell-based; conditions: 37° C.; for minimal inhibitory concentration (MIC): 24 hours; for MIC: 24 h, read-out: minimal inhibitory concentration (MIC)
[14] = test system: Staph.aureus A 355; experiment: agar serial dilution test; conditions: penicillinase-producing strain; for MIC: Staphylococcus aureus, A355, 24 h, read-out: minimal inhibitory concentration (MIC), agar serial dilution, 24 hours, 37° C.
[15] = test system: Bac.Subt.ATCC 6633; experiment: agar serial dilution test; type: cell-based, Bacillus subtilis; conditions: agar serial dilution, 24 hours, 37° C.; for MIC: Bacillus subtilis, ATCC6633, 24 h, read-out: minimal inhibitory concentration (MIC)
[16] = test system: Dipl.pneum. L 54; experiment: agar serial dilution test; type: cell-based, Diplococcus pneumoniae; conditions: agar serial dilution, 24 hours, 37° C.; for MIC: Streptococcus pneumoniae, read-out: minimal inhibitory concentration (MIC)
[17] = test system: Staph.aureus A 2001; experiment: agar serial dilution test; type: cell-based, Staphylococcus aureus; conditions: agar serial dilution, 24 hours, 37° C.; for MIC: Staphylococcus aureus, A2001, 24 h, read-out: minimal inhibitory concentration (MIC)
[18] = test system: Salm.dubl. P 43; experiment: agar serial dilution test; type: cell-based, Salmonella dublin; conditions: agar serial dilution, 24 hours, 37° C.; for MIC: Salmonella enterica, read-out: minimal inhibitory concentration (MIC)
[19] = test system: Prot.mirab. H 3; experiment: agar serial dilution test; type: cell-based, Proteus mirabilis; conditions: agar serial dilution, 24 hours, 37° C.; for MIC: Proteus mirabilis, read-out: minimal inhibitory concentration (MIC)
[20] = test system: Staph.aureus A 321; experiment: agar serial dilution test; type: cell-based, Staphylococcus aureus; conditions: agar serial dilution, 24 hours, 37° C.; for MIC: Staphylococcus aureus, A321, 24 h, read-out: minimal inhibitory concentration (MIC)
[21] = test system: Pseud.aerug. H 10; experiment: agar serial dilution test; type: cell-based; conditions: agar serial dilution, 24 hours, 37° C.; for MIC: read-out: minimal inhibitory concentration (MIC)
[22] = test system: Prot.rettg. A 821; experiment: agar serial dilution test; type: cell-based, Proteus rettgeri; conditions: agar serial dilution, 24 hours, 37° C.; for MIC: Providencia rettgeri, 24 h, read-out: minimal inhibitory concentration (MIC)
[23] = test system: Staph.aureus A 2001; experiment: micro serial dilution test; type: cell-based, Staphylococcus aureus; conditions: micro serial dilution (in brackets), about 18 hours, 30° C. or 37° C.; for MIC: Staphylococcus aureus, A2001, 18 h, read-out: minimal inhibitory concentration (MIC)
[24] = test system: Strep. faec. L 80; experiment: agar serial dilution test; type: cell-based, Streptococcus faecalis; conditions: agar serial dilution, 24 hours, 37° C.; for MIC: Enterococcus faecalis, read-out: minimal inhibitory concentration (MIC)
[25] = test system: Esch.coli U 20; experiment: agar serial dilution test; type: cell-based, Escherichia coli; conditions: for MIC: Escherichia coli
[26] = test system: Strep.haem. A 266; experiment: agar serial dilution test; type: cell-based, Streptococcus haemolyticus; conditions: Streptococcus; agar serial dilution, 24 hours, 37° C.; read-out: minimal inhibitory concentration (MIC)
[27] = agar serial dilution, 24 hours, 37° C.
[28] = agar serial dilution, 24 hours, 37° C., read-out: minimal inhibitory concentration (MIC)
[29] = U20, agar serial dilution, 24 hours, 37° C., read-out: minimal inhibitory concentration (MIC)

Compound: 7-[α-morpholino(3-methyl-1,2,4-oxadiazol-5-yl)-acetamido]-3-acetoxymethyl-3-cephem-4-carboxylic acid [Compound E]
- minimal inhibitory concentration (MIC) [1]: > 100 µg/mL
- minimal inhibitory concentration (MIC) ([2]; 24 hours): > 100 µg/mL
- minimal inhibitory concentration (MIC) [3]: 25 µg/mL
- minimal inhibitory concentration (MIC) [4]: > 100 µg/mL
- minimal inhibitory concentration (MIC) [5, 27]: 100 µg/mL
- minimal inhibitory concentration (MIC) [6]: 6 µg/mL
- minimal inhibitory concentration (MIC) [7]: 12.5 µg/mL
- minimal inhibitory concentration (MIC) [8]: > 100 µg/mL
- minimal inhibitory concentration (MIC) [9]: 8 µg/mL
- minimal inhibitory concentration (MIC) [10]: 8 µg/mL
- minimal inhibitory concentration (MIC) [11]: > 125 µg/mL
- minimal inhibitory concentration (MIC) [12]: > 100 µg/mL
- minimal inhibitory concentration (MIC) [13]: > 100 µg/mL
- minimal inhibitory concentration (MIC) [14, 27]: 12.5 µg/mL
- minimal inhibitory concentration (MIC) [15]: 6 µg/mL
- minimal inhibitory concentration (MIC) [16]: 12.5 µg/mL
- minimal inhibitory concentration (MIC) [17]: 12.5 µg/mL
- minimal inhibitory concentration (MIC) [18]: > 100 µg/mL
- minimal inhibitory concentration (MIC) [19]: > 100 µg/mL
- minimal inhibitory concentration (MIC) [20]: 6 µg/mL
- minimal inhibitory concentration (MIC) [21]: > 100 µg/mL
- minimal inhibitory concentration (MIC) [22]: 3 µg/mL
- minimal inhibitory concentration (MIC) [23]: 4 µg/mL
- minimal inhibitory concentration (MIC) [24]: > 100 µg/mL
- minimal inhibitory concentration (MIC) [25, 27]: > 100 µg/mL

Compound: CC(=O)OCC1=C(C(=O)O)N2C(=O)[C@@H](NC(=O)Cc3noc(Cc4ccccc4)n3)[C@H]2SC1 [Compound C, 7-[(5-benzyl-1,2,4-oxadiazol-3-yl)-acetamido]-3-acetoxymethyl-3-cephem-4-carboxylic acid]
- MIC [1]: > 100 µg/mL
- MIC [2]: 25 µg/mL (≈ 52.9 µM)
- MIC [3]: 12.5 µg/mL (≈ 26.5 µM)
- MIC [4]: > 100 µg/mL
- MIC [5, 28]: 25 µg/mL (≈ 52.9 µM)
- MIC [6]: 1 µg/mL (≈ 2.12 µM)
- MIC [7]: 0.25 µg/mL (≈ 0.529 µM)
- MIC [8]: > 100 µg/mL
- MIC [9]: 0.3 µg/mL (≈ 0.635 µM)
- MIC [10]: 0.6 µg/mL (≈ 1.27 µM)
- MIC [11]: 125 µg/mL (≈ 265 µM)
- MIC [12]: > 100 µg/mL
- MIC [13]: > 100 µg/mL
- MIC [14]: 0.75 µg/mL (≈ 1.59 µM)
- MIC [15]: 0.25 µg/mL (≈ 0.529 µM)
- MIC [16]: 0.5 µg/mL (≈ 1.06 µM)
- MIC [26]: 0.5 µg/mL (≈ 1.06 µM)
- MIC [17]: 0.25 µg/mL (≈ 0.529 µM)
- MIC [18]: > 100 µg/mL
- MIC [19]: > 100 µg/mL
- MIC [20]: 0.25 µg/mL (≈ 0.529 µM)
- MIC [21]: > 100 µg/mL
- MIC [22]: 50 µg/mL (≈ 106 µM)
- MIC [23]: 0.6 µg/mL (≈ 1.27 µM)
- MIC [24]: 12.5 µg/mL (≈ 26.5 µM)
- MIC [25, 29]: > 100 µg/mL

Compound: CC(=O)OCC1=C(C(=O)O)N2C(=O)[C@@H](NC(=O)Cc3nc(C)no3)[C@H]2SC1 [Compound D, sodium-7-[(3-methyl-1,2,4-oxadiazol-5-yl)-acetamido]-3-acetoxymethyl-3-cephem-4-carboxylate]
- MIC [1]: > 100 µg/mL
- MIC [2]: 6 µg/mL
- MIC [3]: 3 µg/mL
- MIC [4]: > 100 µg/mL
- MIC ([5]; 24 h, read-out: minimal inhibitory concentration (MIC), agar serial dilution, 24 hours, 37° C.): 12.5 µg/mL
- MIC [6]: 1.5 µg/mL
- MIC [7]: 0.75 µg/mL
- MIC [8]: > 100 µg/mL
- MIC [9]: 1 µg/mL
- MIC [10]: 0.6 µg/mL
- minimal inhibitory concentration (MIC) [11]: 30 µg/mL
- minimal inhibitory concentration (MIC) [12]: 25 µg/mL
- minimal inhibitory concentration (MIC) [13]: 12.5 µg/mL
- MIC [14]: 0.5 µg/mL
- minimal inhibitory concentration (MIC) [15]: 0.12 µg/mL
- MIC [16]: 0.75 µg/mL
- MIC [17]: 0.75 µg/mL
- MIC [18]: 3 µg/mL
- MIC [19]: 25 µg/mL
- MIC [20]: 0.5 µg/mL
- MIC [21]: > 100 µg/mL
- MIC [22]: 1.5 µg/mL
- MIC [23]: 0.6 µg/mL
- MIC [24]: 50 µg/mL
- MIC ([25]; U20, 24 h, read-out: minimal inhibitory concentration (MIC), agar serial dilution, 24 hours, 37° C.): 12.5 µg/mL

Compound: COC(=O)C(C(=O)N[C@@H]1C(=O)N2C(C(=O)O)=C(COC(C)=O)CS[C@H]12)c1nc(C)no1 (stereo partly drawn) [Example 38, 7-[3-methyl-α-carbomethoxy-1,2,4-oxadiazol-5-yl-acetamido]cephalosporanic acid]
- MIC [1]: > 100 µg/mL
- MIC [2]: 50 µg/mL (≈ 110 µM)
- MIC [3]: 50 µg/mL (≈ 110 µM)
- MIC [4]: > 100 µg/mL
- MIC [5, 28]: 50 µg/mL (≈ 110 µM)
- MIC [6]: 12.5 µg/mL (≈ 27.5 µM)
- MIC [7]: 25 µg/mL (≈ 55 µM)
- MIC [8]: > 100 µg/mL
- MIC [9]: 23 µg/mL (≈ 50.6 µM)
- MIC [10]: 23 µg/mL (≈ 50.6 µM)
- MIC [11]: 125 µg/mL (≈ 275 µM)
- MIC [12]: > 100 µg/mL
- MIC [13]: 100 µg/mL (≈ 220 µM)
- MIC [14]: 25 µg/mL (≈ 55 µM)
- MIC [15]: 6 µg/mL (≈ 13.2 µM)
- MIC [16]: 12.5 µg/mL (≈ 27.5 µM)
- MIC [17]: 25 µg/mL (≈ 55 µM)
- MIC [18]: 100 µg/mL (≈ 220 µM)
- MIC [19]: 100 µg/mL (≈ 220 µM)
- MIC [20]: 25 µg/mL (≈ 55 µM)
- MIC [21]: > 100 µg/mL
- MIC [22]: 25 µg/mL (≈ 55 µM)
- MIC [23]: 15 µg/mL (≈ 33 µM)
- MIC [24]: > 100 µg/mL
- MIC [25, 29]: > 100 µg/mL
